“Also recorded” adds a separate entry of the source.
Key:
[1] = tested on: cerebellar neuron precursors; assay: Cerebellar neuron precursor proliferation (3H-thymidine incorporation); format: cell-based, rat; details: in the absence of Hh protein treatment
Description: In order to test the efficacy of Hedgehog signaling agonists, the ability of the agonists to stimulate the proliferation of cerebellar neuron precursors was determined. Cerebellar granule neuron precursors are known to respond to Hh protein by proliferating. To test the agonists, cerebellar neurons were dissected out of postnatal (one week) rat brains, and placed into primary cell culture. Treatment agents were added once, on the first day of culture (0 DIV). Cells were left in culture until 2 DIV, when 3H-thymidine was added for 5 hours; the amount of incorporation by the cells of this 3H-thymidine provides a measure of the level of proliferation of the cells. Cells were then lysed, and the incorporation of 3H-thymidine was determined. The positive control was Hh protein, at 1.0 μg/ml final concentration. Hh protein alone caused approximately a 20-fold increase in 3H-thymidine incorporation, consistent with the known ability of Shh to stimulate proliferation of these cells. Non-Hh-protein-stimulated cells, including cells treated with control vehicle (DMSO), had very low levels of proliferation. […] At 5.0 μM, the p-cyanophenyl compound B caused 10.2-fold induction of 3H-thymidine incorporation. […] At 1.0, 0.3, or 0.1 μM, D caused 16-, 17-, or 13-fold induction, respectively, of 3H thymidine incorporation into the cells.

[2] = tested on: Ptc-1; assay: Quantitative RT-PCR (TaqMan) measurement of Ptc-1 transcript in C3H 10T1/2 cells; format: cell-based, Murine; details: compound concentration of 8 μM
Description: (§1) The compounds of FIGS. 32 and 33 were tested for their ability to activate transcription of two well-studied targets of the Hedgehog pathway: the transcription factor Gli-1, and the putative Hedgehog receptor component Ptc-1.
(§2) Murine C3H 10T1/2 cells were seeded at approximately 200,000 cells per well in a 24-well plate in complete medium (10% FBS). After 24 hr, medium was removed and replaced with “starvation” medium (0.5% FBS) containing dilutions of compound or Hh protein. After 16-18 hr, total RNA was prepared using TriZol (Life Technologies, inc.).
(§3) One microgram aliquots of total RNA were used to prepare random hexamer-primed cDNA with […] Reverse transcriptase (Life Technologies, Inc.).
(§4) To measure the relative levels of Gli-1 and Ptc-1 transcripts, TaqMan assays (PE Biosystems) were performed with an ABI Prism 7700 Sequence Detection System. As an internal control, GAPDH transcript levels were simultaneously measured in each reaction. Data were analyzed using Sequence Detector v1.6.3 (Perkin Elmer).

[3] = tested on: Gli-1; assay: Quantitative RT-PCR (TaqMan) measurement of Gli-1 transcript in C3H 10T1/2 cells; format: cell-based, Murine; details: compound concentration of 8 μM
Description: as §1, §2, §3, §4

[4] = tested on: ptc-1 (d11) lacZ kidney explants; assay: Kidney branching assay (ptc-1 lacZ kidney explants); format: cell-based, mouse; details: 5 μM, 48 hrs culture
Description: (§5) E13.5 old ptc-1 (d11) lacZ lungs were harvested and transgenic embryos identified by lacZ detection using tails. Explants were assembled on 1 μm polycarbonate filters (Costar) placed on top of plastic grids (histology embedding chamber) and placed in standard 12-well tissue culture plates filled with kidney explant culture medium (DMEM based, additives optimized for the culture of mouse lungs) for 48 hrs, fixed in lacZ fixative, rinsed and stained for lacZ O/N at 37° C.
Results are depicted in FIG. 45. In the control panel on the left, LacZ expression can be observed in the mesenchyme immediately adjacent to proximalmost ureteric epitheilium, a pattern reflective of endogenous patched expression.

[5] = tested on: patched (ptc-lacZ β-galactosidase reporter); assay: Reporter mice assay (ptc-lacZ mice, X-gal staining of tissues); format: in vivo, mouse
Description: Mice with a β-galactosidase transgene (ptc-lacZ mice) under the regulatory control of the patched locus expresss the β-galactosidase protein in the same cells where the endogenous mouse patched gene is expressed. The β-galactosidase protein can thus be used as a faithful reporter of the expression of the endogenous patched gene.
Ptc-lacZ mice were divided into four treatment groups and were treated with the following compounds or combinations of compounds for four days, beginning on the first day after birth (dipal-Shh=dipalmitoylated Sonic hedgehog):
The vehicle for the agonist was 10% DMSO in PBS (pH 7.2). The agonist was injected from a 4.67 mM stock dissolved in the vehicle solution.
18 hours following the last injections, the mice were sacrificed and the following tissues were collected: skull, kidney, lung, scapula, skin and heart. All tissues were fixed in 0.2% glutaraldehyde, 5 mM EDTA (pH 8.0), 20 mM MgCl2, 100 mM Na2HPO4 for 30 minutes before staining in 1 mg/ml X-gal, 12.5 mM potassium ferrocyanide, 12.5 mM potassium ferricyanide, 2 mM MgCl2, 0.01% deoxycholate, 0.02% NP-40, and 100 mM Na2HPO4 for 30 hours. Tissues were judged for relative intensity and photographed.
FIG. 42: Ptc-lacZ mice were divided into two treatment groups and were treated with the following compounds for three days, beginning on the first day after birth:
The vehicle for the agonist was 10% DMSO in PBS (pH 7.2). The agonist was injected from a 1.0 mM stock dissolved in the vehicle solution.
Eighteen hours following the last injections, the mice were sacrificed and the forelimbs were collected and processed as described above.
In a third experiment, Ptc-lacZ mice were divided into five treatment groups and were treated with the following compounds for four days, beginning on the first day after birth:
The vehicle for the agonist was 10% DMSO in PBS (pH 7.2). The agonist was injected from stocks of 0.3, 0.1 and 0.03 mM dissolved in the vehicle solution.
Eighteen hours following the last injections, the mice were sacrificed and the forelimbs were collected and processed as described above. Results of this experiment are depicted in FIG. 43, in which the vehicle control is not shown.

[6] = tested on: ptc-1 (d11) lacZ lungs; assay: Lung branching assay (ptc-1 lacZ lung explants); format: cell-based, mouse; details: 5 μM, 48 hrs culture
Description: as §5, with “E 12.5” for “E13.5”, “lung” for “kidney”
Results are depicted in FIG. 44. In the control panel on the left, LacZ expression can be observed in the mesenchyme immediately adjacent to distal branching tips, a pattern reflective of endogenous patched expression.

[7] = tested on: ptc-lacZ skin punches; assay: Skin explants from ptc-lacZ pups (X-Gal stain); format: cell-based, mouse; details: agonist and a low dose of Hh protein, cultured 6 days
Description: Skin from ptc-lacZ E17.5 pups was excised with a 2 mm skin punch. Those skin punches were then cultured for 6 days in control media, or media including either agonist B or D or Hh protein, or media including both an agonist and Hh protein. The explants were then stained with X-Gal stain.

[8] = tested on: human embryonic palatal mesenchyme (HEPM) cells with a Gli-Luc construct; assay: Gli-Luc reporter assay in human reporter cells; format: cell-based
Source text: FIGS. 47A and B compare the activity of subject compounds O and R in mouse reporter cells (TM3 cells with a Gli-Luc reporter construct, as described above) and in human reporter cells (human embryonic palatal mesenchyme (HEPM) cells with a Gli-Luc construct).

COc1ccc(CN(C(=O)c2sc3ccccc3c2Cl)C2CCC(N)CC2)cc1-c1cccc([N+](=O)[O-])c1 (centres unmarked) [A]
stimulation of 3H-thymidine incorporation [1]: significantly stimulate 3H-thymidine incorporation | induction of Ptc-1 relative to that obtained with the optimal concentration of Hh protein [2]: ~40% | induction of Gli-1 relative to that obtained with the optimal concentration of Hh protein [3]: ~40%

COc1ccc(CN(C(=O)c2sc3ccccc3c2Cl)C2CCC(N)CC2)cc1-c1ccc(C#N)cc1 (centres unmarked) [B]
LacZ reporter gene expression in kidney explants [4]: significantly increased reporter gene expression and expansion of the expression domain of the transgene | upregulation of β-galactosidase (hedgehog pathway) in tissues ([5]; 15 mg/kg/injection 4X/day plus dipal-Shh 1 mg/kg/injection 2X/day, four days from first day after birth, skull, kidney, lung, scapula, skin, heart): clearly capable of upregulating the hedgehog pathway in vivo | stimulation of 3H-thymidine incorporation [1]: significantly stimulate 3H-thymidine incorporation | induction of Ptc-1 relative to that obtained with the optimal concentration of Hh protein [2]: approximately 60% | induction of Gli-1 relative to that obtained with the optimal concentration of Hh protein [3]: approximately 60% | LacZ reporter gene expression in lung explants [6]: significantly increased reporter gene expression and expansion of the expression domain of the transgene

CNC1CCC(N(Cc2ccc(OC)c(-c3ccc(C#N)cc3)c2)C(=O)c2sc3ccccc3c2Cl)CC1 (centres unmarked) [D]
upregulation of hedgehog pathway (β-galactosidase) in forelimbs ([5]; 0.1 mg/kg/injection 4X/day, four days): very weak upregulation | upregulation of hedgehog pathway (β-galactosidase) in forelimbs ([5]; 0.3 mg/kg/injection 4X/day, four days): greater than that seen with injections of Hh protein | upregulation of hedgehog pathway (β-galactosidase) in forelimbs ([5]; 0.9 mg/kg/injection 4X/day, four days, listed as agonist D): highest levels of upregulation; also recorded: greater than that seen with injections of Hh protein | upregulation of hedgehog pathway (β-galactosidase) in forelimbs ([5]; 4 mg/kg/injection 4X/day, three days, absence of dipal-Shh, listed as Agonist D): clearly capable of upregulating the hedgehog pathway in vivo | upregulation of hedgehog pathway (β-galactosidase) in forelimbs ([5]; 4 mg/kg/injection 4X/day, three days, absence of dipal-Shh, listed as agonist D): greater than that seen with injections of dipal-Shh | stimulation of 3H-thymidine incorporation [1]: strongly stimulated 3H-thymidine incorporation | X-Gal staining of skin explants [7]: Analogous results

CNC1CCC(N(Cc2ccc(-c3cccnc3)o2)C(=O)c2sc3ccccc3c2Cl)CC1 (centres unmarked) [R]
activation of Gli-Luc reporter in human cells [8]: activation of the reporter cell line
